Assay results taken from US20260097022A1, “COMPOUNDS AND USES THEREOF” (Integrated Biosciences, Inc., priority 2023, published 2026).
Counter-ions that a name gives are not always drawn.

System: etoposide-treated IMR-90 cells
Assay: Etoposide-induced senescence model, resazurin cell viability (screen and dose-response)
Format: cell-based, human
Conditions: for Therapeutic Index (TI): etoposide-induced senescence model, ratio of IC50 values between etoposide- and DMSO-treated IMR-90 fibroblasts
Method: Cell culture. Human lung fibroblast (IMR-90) cells were obtained from ATCC (CCL-186) and passaged less than 10 times (less than 30 population doublings) for all experiments described in this example, with the exception of high-passage cells used in the model of replicative senescence (see the section on Replicative senescence below). Cells were cultured in growth media comprising Eagle's Minimum Essential Medium (EMEM: ATCC 30-2003) supplemented with 10% fetal bovine serum (FBS: Thermo Fisher 16140071) and 1% penicillin-streptomycin (Thermo Fisher 15070063). Cells were incubated in a humidity-controlled incubator at 37° C., with 5% CO2. Cells were detached using trypsin-EDTA (0.05%; Gibco 25300120).
Etoposide-induced senescence. IMR-90 cells were cultured as described above. At between 30 to 50% confluence, the media was replaced with complete growth media containing vehicle (0.5% dimethyl sulfoxide: DMSO, MilliporeSigma D5879) or complete growth media containing 50 μM etoposide (prepared as a 1:200 dilution of a 10 mM stock solution in DMSO; etoposide, MilliporeSigma E1383). Cells were treated for 2 days, after which the media was replaced with fresh growth media and cells were allowed to recover for 4 days. Cells were then plated as described below.
Chemical screening. For all screening experiments. 99 μL of cells were plated into each well of a 96-well clear flat-bottom, black polystyrene tissue-culture-treated plate (Corning 3904) at a density of ˜10+ cells/well. Plates were incubated overnight for adhesion. The day after plating. 1 μL of each compound, prepared as either a 1 mM stock solution in DMSO (10 μM final concentration screen) or 0.1 mM stock solution in DMSO (1 μM final concentration screen), was added to each well using an Agilent Bravo liquid handler. A built-in slow mixing step involving aspirating and dispensing was used to enhance distribution of the added compounds in solution. Cells were incubated for 3 days, after which resazurin (MilliporeSigma R^7017) was added to each well to a final concentration of 0.15 mM. After an additional 1 day of incubation, the fluorescence excitation/emission at 550/590 nm was read using a SpectraMaxR M3 plate reader and manufacturer software (SoftMax Pro R 6). Experiments were performed in biological duplicate.
Three-fold serial dilutions of compound were prepared in DMSO, then added to cell plates (final concentration of DMSO. 1%). Cell viability was then assayed as detailed above, and resazurin fluorescence values were linearly interpolated with respect to values from empty and positive control (non-treatment) wells. Experiments were performed in biological duplicate each on two independent occasions. When possible, chemical stocks from commercial suppliers were used: econazole nitrate (Cayman Chemical 20223), artenimol (Cayman Chemical 19846), and ABT-263 (Cayman Chemical 11500) were from Cayman Chemical, and dehydrodeguelin was aliquoted from the screening library.
Calculation of cellular viability values in dose-response curves. […] For each sample, the fluorescence intensity value was normalized by the mean of two untreated control values. Cellular viability values are therefore indicated as fractions of the cellular viability of untreated controls. Vehicle (1% DMSO) control values are included in each dose-response curve. Experiments were performed in biological duplicate each on two independent occasions.
Calculation of baseline cellular viability values. […] Additionally, baseline cellular viability values were calculated for untreated cells at the start of the experiment. Resazurin was added to a final concentration of 0.15 mM on the day of seeding (corresponding to day 0 in FIG. 7).

SMILES: O=C(CSc1nc2ccc(NC(=O)c3ccc(Cl)cc3)cc2s1)Nc1ccc(F)cc1 [compound 62]
- Therapeutic Index (TI): ++ (compounds with a TI of 1 to 5 were labelled as ++)

SMILES: COc1ccccc1C(=O)Nc1ccc2nc(SCC(=O)Nc3ccc(C(C)=O)cc3)sc2c1 [compound 21]
- Therapeutic Index (TI): +++ (compounds with a TI of >5 were labeled as +++)

SMILES: CCOc1ccc(C(=O)Nc2ccc3nc(SCC(=O)Nc4ccc(F)cc4)sc3c2)cc1 [compound 120]
- Therapeutic Index (TI): ++ (compounds with a TI of 1 to 5 were labelled as ++)

SMILES: Cc1cccc(NC(=O)CSc2nc3ccc(NC(=O)c4cccc5ccccc45)cc3s2)c1C [compound 102]
- Therapeutic Index (TI): ++ (compounds with a TI of 1 to 5 were labelled as ++)

SMILES: O=C(CSc1nc2ccc(NC(=O)c3cccc4ccccc34)cc2s1)Nc1ccccc1F [compound 92]
- Therapeutic Index (TI): ++ (compounds with a TI of 1 to 5 were labelled as ++)

SMILES: Cc1cccc(NC(=O)CSc2nc3ccc(NC(=O)c4ccccc4)cc3s2)c1C [compound 150]
- Therapeutic Index (TI): + (Compounds with a TI of <1 were labelled as +)

SMILES: Cc1ccccc1C(=O)Nc1ccc2nc(SCC(=O)Nc3ccccc3F)sc2c1 [compound 29]
- Therapeutic Index (TI): ++ (compounds with a TI of 1 to 5 were labelled as ++)

SMILES: CS(=O)(=O)c1ccc(C(=O)Nc2ccc3nc(SCC(=O)Nc4cccc(S(N)(=O)=O)c4)sc3c2)cc1F [compound 173]
- Therapeutic Index (TI): ++ (compounds with a TI of 1 to 5 were labelled as ++)

SMILES: CCCCOc1ccc(C(=O)Nc2ccc3nc(SCC(=O)Nc4ccccc4)sc3c2)cc1 [compound 76]
- Therapeutic Index (TI): ++ (compounds with a TI of 1 to 5 were labelled as ++)

SMILES: CCOc1ccc(C(=O)Nc2ccc3nc(SCC(=O)Nc4ccc(C)cc4C)sc3c2)cc1 [compound 47]
- Therapeutic Index (TI): ++ (compounds with a TI of 1 to 5 were labelled as ++)

SMILES: O=C(CSc1nc2ccc(NC(=O)c3ccccc3Cl)cc2s1)Nc1ccccc1F [compound 42]
- Therapeutic Index (TI): ++ (compounds with a TI of 1 to 5 were labelled as ++)

SMILES: Cc1ccccc1C(=O)Nc1ccc2nc(SCC(=O)N(C)c3ccccc3)sc2c1 [compound 125]
- Therapeutic Index (TI): ++ (compounds with a TI of 1 to 5 were labelled as ++)

SMILES: CCC(Sc1nc2ccc(NC(=O)c3ccc(C)cc3)cc2s1)C(=O)Nc1ccc(Cl)cc1 (stereo not drawn) [compound 65]
- Therapeutic Index (TI): ++ (compounds with a TI of 1 to 5 were labelled as ++)

SMILES: COc1cccc(NC(=O)CSc2nc3ccc(NC(=O)c4ccccc4C)cc3s2)c1 [compound 158]
- Therapeutic Index (TI): + (Compounds with a TI of <1 were labelled as +)

SMILES: COc1ccccc1C(=O)Nc1ccc2nc(SCC(=O)Nc3ccc(Cl)cc3)sc2c1 [compound 112]
- Therapeutic Index (TI): ++ (compounds with a TI of 1 to 5 were labelled as ++)

SMILES: CCOc1ccc(NC(=O)CSc2nc3ccc(NC(=O)c4ccccc4)cc3s2)cc1 [compound 166]
- Therapeutic Index (TI): + (Compounds with a TI of <1 were labelled as +)

SMILES: Cc1cccc(C(=O)Nc2ccc3nc(SCC(=O)Nc4ccccc4)sc3c2)c1 [compound 106]
- Therapeutic Index (TI): ++ (compounds with a TI of 1 to 5 were labelled as ++)

SMILES: COc1ccc(NC(=O)CSc2nc3ccc(NC(=O)c4ccccc4F)cc3s2)cc1 [compound 3]
- Therapeutic Index (TI): +++ (compounds with a TI of >5 were labeled as +++)

SMILES: CCOc1ccc(NC(=O)C(C)Sc2nc3ccc(NC(=O)c4ccc(OC)cc4)cc3s2)cc1 (stereo not drawn) [compound 41]
- Therapeutic Index (TI): ++ (compounds with a TI of 1 to 5 were labelled as ++)

SMILES: CCCCOc1ccc(NC(=O)CSc2nc3ccc(NC(=O)c4ccc(C)cc4)cc3s2)cc1 [compound 34]
- Therapeutic Index (TI): ++ (compounds with a TI of 1 to 5 were labelled as ++)

SMILES: COc1ccc(Cl)cc1NC(=O)CSc1nc2ccc(NC(=O)c3ccc(C)cc3)cc2s1 [compound 131]
- Therapeutic Index (TI): ++ (compounds with a TI of 1 to 5 were labelled as ++)

SMILES: Cc1ccc(NC(=O)CSc2nc3ccc(NC(=O)c4ccccc4)cc3s2)cc1Cl [compound 37]
- Therapeutic Index (TI): ++ (compounds with a TI of 1 to 5 were labelled as ++)

SMILES: Cc1ccccc1C(=O)Nc1ccc2nc(SCC(=O)NCCOc3ccccc3)sc2c1 [compound 93]
- Therapeutic Index (TI): ++ (compounds with a TI of 1 to 5 were labelled as ++)

SMILES: CC(C)c1ccc(NC(=O)CSc2nc3ccc(NC(=O)c4ccccc4)cc3s2)cc1 [compound 14]
- Therapeutic Index (TI): +++ (compounds with a TI of >5 were labeled as +++)

SMILES: Cc1ccccc1C(=O)Nc1ccc2nc(SCC(=O)Nc3cccc(Cl)c3)sc2c1 [compound 107]
- Therapeutic Index (TI): ++ (compounds with a TI of 1 to 5 were labelled as ++)

SMILES: COc1ccccc1C(=O)Nc1ccc2nc(SCC(=O)Nc3ccc(C(C)C)cc3)sc2c1 [compound 155]
- Therapeutic Index (TI): + (Compounds with a TI of <1 were labelled as +)

SMILES: COc1cccc(C(=O)Nc2ccc3nc(SCC(=O)Nc4ccccc4)sc3c2)c1 [compound 53]
- Therapeutic Index (TI): ++ (compounds with a TI of 1 to 5 were labelled as ++)

SMILES: COc1ccc(C(=O)Nc2ccc3nc(SCC(=O)N4CCOCC4)sc3c2)cc1OC [compound 162]
- Therapeutic Index (TI): + (Compounds with a TI of <1 were labelled as +)

SMILES: Cc1cc(C)c(NC(=O)CSc2nc3ccc(NC(=O)c4ccccc4C)cc3s2)c(C)c1 [compound 72]
- Therapeutic Index (TI): ++ (compounds with a TI of 1 to 5 were labelled as ++)

SMILES: CC(=O)c1ccc(NC(=O)CSc2nc3ccc(NC(=O)c4ccc(Cl)cc4)cc3s2)cc1 [compound 114]
- Therapeutic Index (TI): ++ (compounds with a TI of 1 to 5 were labelled as ++)

SMILES: CCCCOc1ccc(NC(=O)CSc2nc3ccc(NC(=O)c4ccc(Cl)cc4)cc3s2)cc1 [compound 77]
- Therapeutic Index (TI): ++ (compounds with a TI of 1 to 5 were labelled as ++)

SMILES: CCOc1ccc(C(=O)Nc2ccc3nc(SCC(=O)Nc4ccc(C)cc4)sc3c2)cc1 [compound 94]
- Therapeutic Index (TI): ++ (compounds with a TI of 1 to 5 were labelled as ++)

SMILES: COc1ccccc1C(=O)Nc1ccc2nc(SCC(=O)Nc3c(C)cccc3C)sc2c1 [compound 59]
- Therapeutic Index (TI): ++ (compounds with a TI of 1 to 5 were labelled as ++)

SMILES: COc1ccc(NC(=O)CSc2nc3ccc(NC(=O)c4ccccc4C)cc3s2)cc1 [compound 52]
- Therapeutic Index (TI): ++ (compounds with a TI of 1 to 5 were labelled as ++)

SMILES: CCC(Sc1nc2ccc(NC(=O)c3ccccc3)cc2s1)C(=O)Nc1ccc(C(C)=O)cc1 (stereo not drawn) [compound 15]
- Therapeutic Index (TI): +++ (compounds with a TI of >5 were labeled as +++)

SMILES: Cc1ccc(NC(=O)CSc2nc3ccc(NC(=O)c4ccccc4C)cc3s2)cc1 [compound 141]
- Therapeutic Index (TI): ++ (compounds with a TI of 1 to 5 were labelled as ++)

SMILES: CN(C)CCCN1c2ccccc2CCc2ccccc21 [imipramine hydrochloride, reference compound]
- senolytic activity in screen (1 μM, 3 days): active

SMILES: COc1ccccc1C(=O)Nc1ccc2nc(SCC(=O)Nc3ccccc3)sc2c1 [compound 104]
- Therapeutic Index (TI): ++ (compounds with a TI of 1 to 5 were labelled as ++)

SMILES: CC(=O)c1ccc(NC(=O)CSc2nc3ccc(NC(=O)c4cccc(C)c4)cc3s2)cc1 [compound 138]
- Therapeutic Index (TI): ++ (compounds with a TI of 1 to 5 were labelled as ++)

SMILES: O=C(CSc1nc2ccc(NC(=O)c3ccc(F)cc3)cc2s1)Nc1cccc(Cl)c1 [compound 51]
- Therapeutic Index (TI): ++ (compounds with a TI of 1 to 5 were labelled as ++)

SMILES: CCCCCCCCCCOc1ccc(C(=O)Nc2ccc3nc(SCC(=O)Nc4ccccc4)sc3c2)cc1 [compound 149]
- Therapeutic Index (TI): + (Compounds with a TI of <1 were labelled as +)

SMILES: O=C(CSc1nc2ccc(NC(=O)c3ccccc3)cc2s1)Nc1ccc(Br)cc1 [compound 137]
- Therapeutic Index (TI): ++ (compounds with a TI of 1 to 5 were labelled as ++)

SMILES: CCCCOc1ccc(C(=O)Nc2ccc3nc(SCC(=O)Nc4ccc(CC)cc4)sc3c2)cc1 [compound 124]
- Therapeutic Index (TI): ++ (compounds with a TI of 1 to 5 were labelled as ++)

SMILES: O=C(Nc1ccc2nc(SCC(=O)N3CCc4ccccc43)sc2c1)c1cccc(F)c1 [compound 31]
- Therapeutic Index (TI): ++ (compounds with a TI of 1 to 5 were labelled as ++)

SMILES: CCCCOc1ccc(NC(=O)CSc2nc3ccc(NC(=O)c4ccc(OCCCC)cc4)cc3s2)cc1 [compound 86]
- Therapeutic Index (TI): ++ (compounds with a TI of 1 to 5 were labelled as ++)
